# US20020137929A1, “1 - (3-heterocyclylphenyl) isothiourea, -isourea, -guanidine and -amidine herbicidal agents” (Intellectual Property Department, BASF Aktiengesellschaft, priority 1998, published 2002)
# What was measured:
# [1] = tested on: ECHORC (Watergrass (Calif.)); assay: Postemergence weed control under flooded paddy conditions; assay type: in vivo, Echinochloa oryzoides; conditions: postemergence weeds
# Summary of the method: (§1)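 With weeds 3 to 5 cm tall and rice at the 1.5 to 2.5 leaf stage, containers were flooded and water held 1.5 to 3 cm above soil. Compounds in 50/50 v/v aqueous/acetone went into the flood water at about 0.0313 to 0.500 kg/ha a.i. Effects were visually rated 0–9 against controls after three to four weeks in the greenhouse.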
# [2] = tested on: ECHORC (Watergrass (Calif.)); assay: Preemergence weed control under flooded paddy conditions; assay type: in vivo, Echinochloa oryzoides; conditions: rated 3-4 weeks after treatment
# Summary of the method: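 Silt loam, seeds in top 0.5 cm; flood held 1.5-3 cm; test cpd as acetone/water 50/50 into flood water, ~0.0313-0.500 kg/ha a.i.; greenhouse 3-4 wk; visual 0-9 score vs control.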
# MOOVA (Monochoria) = assay: as above; assay type: in vivo, Monochoria vaginalis; conditions: rated 3-4 weeks after treatment
# Summary of the method: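 Ratings on a 0-9 visual scale cover stand, vigor, malformation, size, chlorosis and overall appearance relative to a control, taken three to four weeks post-treatment. Application was into flood water over freshly sown silt loam at roughly 0.0313 to 0.500 kg/ha.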
# [3] = tested on: IPOHE (Morningglory, Ivyleaf); assay: Postemergence herbicidal evaluation; assay type: in vivo, Ipomoea hederacea; conditions: for Herbicidal rating IPOHE: postemergence
# Summary of the method: (§2)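 Visual 0–9 rating versus control (stand, vigor, malformation, size, chlorosis, overall appearance), taken four to five weeks post-spray. Two-week-old seedlings received roughly 0.0156–0.500 kg/ha active in acetone/water (50/50) with 0.5% TWEEN 20 via nozzle at 40 psi.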
# [4] = tested on: TRZAWR (Wheat, Winter, cv Riband); assay: Postemergence herbicidal evaluation; assay type: in vivo, Triticum aestivum; conditions: for Herbicidal rating TRZAWR: postemergence
# Summary of the method: as §2
# ABUTH (Velvetleaf) = assay: Postemergence herbicidal evaluation; assay type: in vivo, Abutilon theophrasti; conditions: for Herbicidal rating ABUTH: postemergence
# Summary of the method: as §2
# CYPIR (Rice Flatsedge) = assay: Postemergence weed control under flooded paddy conditions; assay type: in vivo, Cyperus iria; conditions: postemergence weeds
# Summary of the method: as §1
# [5] = rate 0.0313 kg/ha, 3-4 weeks after treatment
# [6] = rate 0.0625 kg/ha, 3-4 weeks after treatment
# [7] = rate 0.1250 kg/ha, 3-4 weeks after treatment
# [8] = rate 0.2500 kg/ha, 3-4 weeks after treatment
# [9] = Rate 0.0313 kg/ha, rated 3 to 4 weeks after treatment
# [10] = Rate 0.0625 kg/ha, rated 3 to 4 weeks after treatment
# [11] = Rate 0.1250 kg/ha, rated 3 to 4 weeks after treatment
# [12] = Rate 0.2500 kg/ha, rated 3 to 4 weeks after treatment
# [13] = Rate 0.5000 kg/ha, rated 3 to 4 weeks after treatment
compound,measurement,setting,value
"2-{{2-Chloro-5-[3,6-dihydro-3-methyl-2,6-dioxo-4-(trifluoromethyl)-1(2H)-pyrimidinyl]-4-fluoro-phenyl}imino}-4-oxo-3,5-thiazolidenediacetic acid, 3-ethyl (2-propynyl) ester, (2:1) mixture with di-2-propynyl ester [Compound 58]",Herbicidal rating ECHORC,[1]; [5],7.0
same,Herbicidal rating ECHORC,[1]; [6],7.0
same,Herbicidal rating ECHORC,[1]; [7],7.0
same,Herbicidal rating ECHORC,[1]; [8],9.0
same,ECHORC herbicidal effect rating,[2]; 0.0313 kg/ha,7.0
same,Herbicidal rating ECHORC,[2]; 0.0625 kg/ha,7.0
same,Herbicidal rating ECHORC,[2]; 0.1250 kg/ha,7.0
same,Herbicidal rating ECHORC,[2]; 0.2500 kg/ha,9.0
same,MOOVA herbicidal effect rating,MOOVA (Monochoria); 0.0313 kg/ha,0.0
same,Herbicidal rating MOOVA,MOOVA (Monochoria); 0.0625 kg/ha,0.0
same,Herbicidal rating MOOVA,MOOVA (Monochoria); 0.1250 kg/ha,3.0
same,Herbicidal rating MOOVA,MOOVA (Monochoria); 0.2500 kg/ha,9.0
same,Postemergence herbicidal rating IPOHE,[3]; Rate 0.0158 kg/ha,9.0
same,Postemergence herbicidal rating IPOHE,[3]; Rate 0.0315 kg/ha,9.0
same,Postemergence herbicidal rating IPOHE,[3]; Rate 0.0630 kg/ha,9.0
same,Postemergence herbicidal rating TRZAWR,[4]; Rate 0.0158 kg/ha,5.0
same,Postemergence herbicidal rating TRZAWR,[4]; Rate 0.0315 kg/ha,5.0
same,Postemergence herbicidal rating TRZAWR,[4]; Rate 0.0630 kg/ha,7.5
same,Postemergence herbicidal rating ABUTH,ABUTH (Velvetleaf); Rate 0.0158 kg/ha,9.0
same,Postemergence herbicidal rating ABUTH,ABUTH (Velvetleaf); Rate 0.0315 kg/ha,9.0
same,Postemergence herbicidal rating ABUTH,ABUTH (Velvetleaf); Rate 0.0630 kg/ha,9.0
same,Herbicidal rating CYPIR,CYPIR (Rice Flatsedge); [5],0.0
same,Herbicidal rating CYPIR,CYPIR (Rice Flatsedge); [6],0.0
same,Herbicidal rating CYPIR,CYPIR (Rice Flatsedge); [7],2.0
same,Herbicidal rating CYPIR,CYPIR (Rice Flatsedge); [8],3.0
"CCOC(=O)CN1C(=O)C(CC(=O)OC(C)C)SC1=Nc1cc(-n2c(=O)cc(C(F)(F)F)n(C)c2=O)c(F)cc1Cl (stereo not shown) [Compound 55, 2-{{2-Chloro-5-[3,6-dihydro-3-methyl-2,6-dioxo-4-(trifluoromethyl)-1(2H)-pyrimidinyl]-4-fluoro-phenyl}imino}-4-oxo-3,5-thiazolidinediacetic acid, 3-ethyl isopropyl ester]",Herbicidal rating ECHORC,[1]; [5],7.0
same,Herbicidal rating ECHORC,[1]; [6],7.0
same,Herbicidal rating ECHORC,[1]; [7],7.0
same,Herbicidal rating ECHORC,[1]; [8],7.0
same,Herbicidal rating ECHORC,[2]; 0.0313 kg/ha,7.0
same,Herbicidal rating ECHORC,[2]; 0.0625 kg/ha,7.0
same,Herbicidal rating ECHORC,[2]; 0.1250 kg/ha,7.0
same,Herbicidal rating ECHORC,[2]; 0.2500 kg/ha,7.0
same,Herbicidal rating MOOVA,MOOVA (Monochoria); 0.0313 kg/ha,9.0
same,Herbicidal rating MOOVA,MOOVA (Monochoria); 0.0625 kg/ha,9.0
same,Herbicidal rating MOOVA,MOOVA (Monochoria); 0.1250 kg/ha,9.0
same,Herbicidal rating MOOVA,MOOVA (Monochoria); 0.2500 kg/ha,9.0
same,Postemergence herbicidal rating IPOHE,[3]; Rate 0.0158 kg/ha,9.0
same,Postemergence herbicidal rating IPOHE,[3]; Rate 0.0313 kg/ha,9.0
same,Postemergence herbicidal rating IPOHE,[3]; Rate 0.0625 kg/ha,9.0
same,Postemergence herbicidal rating IPOHE,[3]; Rate 0.1250 kg/ha,9.0
same,Postemergence herbicidal rating IPOHE,[3]; Rate 0.2500 kg/ha,9.0
same,Postemergence herbicidal rating TRZAWR,[4]; Rate 0.0158 kg/ha,5.5
same,Postemergence herbicidal rating TRZAWR,[4]; Rate 0.0313 kg/ha,6.8
same,Postemergence herbicidal rating TRZAWR,[4]; Rate 0.0625 kg/ha,7.5
same,Postemergence herbicidal rating TRZAWR,[4]; Rate 0.1250 kg/ha,7.5
same,Postemergence herbicidal rating TRZAWR,[4]; Rate 0.2500 kg/ha,7.5
same,Postemergence herbicidal rating ABUTH,ABUTH (Velvetleaf); Rate 0.0158 kg/ha,8.0
same,Postemergence herbicidal rating ABUTH,ABUTH (Velvetleaf); Rate 0.0313 kg/ha,9.0
same,Postemergence herbicidal rating ABUTH,ABUTH (Velvetleaf); Rate 0.0625 kg/ha,9.0
same,Postemergence herbicidal rating ABUTH,ABUTH (Velvetleaf); Rate 0.1250 kg/ha,9.0
same,Postemergence herbicidal rating ABUTH,ABUTH (Velvetleaf); Rate 0.2500 kg/ha,9.0
same,Herbicidal rating CYPIR,CYPIR (Rice Flatsedge); [5],9.0
same,Herbicidal rating CYPIR,CYPIR (Rice Flatsedge); [6],9.0
same,Herbicidal rating CYPIR,CYPIR (Rice Flatsedge); [7],9.0
same,Herbicidal rating CYPIR,CYPIR (Rice Flatsedge); [8],9.0
"C=CCN1C(=O)C(CC(=O)NS(=O)(=O)c2ccccc2)SC1=Nc1cc(-n2c(=O)cc(C(F)(F)F)n(C)c2=O)c(F)cc1Cl (stereo not shown) [Compound 101, 3-Allyl-2-{{2-chloro-5-[3,6-dihydro-3-methyl-2,6-dioxo-4-(trifluoromethyl)-1(2H)-pyrimidinyl]-4-fluorophenyl}imino}-4-oxo-N-(phenylsulfonyl)-5-thiazolidineacetamide]",Herbicidal rating ECHORC,[1]; [9],0.0
same,Herbicidal rating ECHORC,[1]; [10],0.0
same,Herbicidal rating ECHORC,[1]; [11],0.0
same,Herbicidal rating ECHORC,[1]; [12],0.0
same,Herbicidal rating ECHORC,[1]; [13],0.0
same,ECHORC herbicidal effect rating,[2]; 0.0313 kg/ha,0.0
same,ECHORC herbicidal effect rating,[2]; 0.0625 kg/ha,0.0
same,ECHORC herbicidal effect rating,[2]; 0.1250 kg/ha,0.0
same,ECHORC herbicidal effect rating,[2]; 0.2500 kg/ha,0.0
same,ECHORC herbicidal effect rating,[2]; 0.5000 kg/ha,0.0
same,MOOVA herbicidal effect rating,MOOVA (Monochoria); 0.0313 kg/ha,5.0
same,MOOVA herbicidal effect rating,MOOVA (Monochoria); 0.0625 kg/ha,5.0
same,MOOVA herbicidal effect rating,MOOVA (Monochoria); 0.1250 kg/ha,7.0
same,MOOVA herbicidal effect rating,MOOVA (Monochoria); 0.2500 kg/ha,9.0
same,MOOVA herbicidal effect rating,MOOVA (Monochoria); 0.5000 kg/ha,9.0
same,Herbicidal rating IPOHE,[3]; rate 0.0156 kg/ha,4.0
same,Herbicidal rating IPOHE,[3]; rate 0.0313 kg/ha,9.0
same,Herbicidal rating IPOHE,[3]; rate 0.0625 kg/ha,9.0
same,Herbicidal rating IPOHE,[3]; rate 0.1250 kg/ha,9.0
same,Herbicidal rating TRZAWR,[4]; rate 0.0156 kg/ha,3.0
same,Herbicidal rating TRZAWR,[4]; rate 0.0313 kg/ha,3.5
same,Herbicidal rating TRZAWR,[4]; rate 0.0625 kg/ha,4.0
same,Herbicidal rating TRZAWR,[4]; rate 0.1250 kg/ha,5.0
same,Herbicidal rating ABUTH,ABUTH (Velvetleaf); rate 0.0156 kg/ha,3.0
same,Herbicidal rating ABUTH,ABUTH (Velvetleaf); rate 0.0313 kg/ha,7.0
same,Herbicidal rating ABUTH,ABUTH (Velvetleaf); rate 0.0625 kg/ha,9.0
same,Herbicidal rating ABUTH,ABUTH (Velvetleaf); rate 0.1250 kg/ha,9.0
same,Herbicidal rating CYPIR,CYPIR (Rice Flatsedge); [9],0.0
same,Herbicidal rating CYPIR,CYPIR (Rice Flatsedge); [10],0.0
same,Herbicidal rating CYPIR,CYPIR (Rice Flatsedge); [11],0.0
same,Herbicidal rating CYPIR,CYPIR (Rice Flatsedge); [12],3.0
same,Herbicidal rating CYPIR,CYPIR (Rice Flatsedge); [13],4.0
